± gives the expanded uncertainty stated by the source.
Conditions: 298.15 K, 101.33 kPa, Liquid

Compound: OCCO [1,2-ethanediol]
- viscosity (Cone and plate viscometry): 16.9 ± 1.7 mPa·s
- electrical conductivity (Direct current cell with electrodes): 8.5e-05 ± 2e-06 S/m
- thermal conductivity (transient hot wire): 0.2445 ± 0.0098 W/m/K
